From paper PMC10733463, “Berberine-microbiota interplay: orchestrating gut health through modulation of the gut microbiota and metabolic transformation into bioactive metabolites” (Frontiers in Pharmacology, 2023)

Experiments:
[1] = test system: Blautia spp., A. butyraticus, E. limosum; assay: Growth of bacteria in presence of increasing concentrations of berberine; format: cell-based; settings: 10 μg/mL berberine, M2GSC, anaerobic
Source text: Samples were collected and processed as described before.
Supplementary Figure S1 – Growth of bacteria in presence of increasing concentrations of berberine in M2GSC medium (μg/mL) under anaerobic conditions. Strains were further tested for their ability to metabolize berberine (Figure 14). Strains were selected according to OTUs which relative abundance was positively correlated to berberrubine or thalifendine levels, including Blautia spp. and A. butyraticus. E. limosum was included as it was expected to demethylate berberine due to previous literature (Possemiers et al., 2008; Rich et al., 2022). Overnight cultures were 1:1000 diluted in M2GSC medium supplemented with 0, 1, 10 or 100 µg/mL berberine and grown for 24 hours under anaerobic conditions. Absorbance data at 600 nm are expressed as the mean ± standard deviation (n = 3). *: p < 0.05; ***: p < 0.001.

[2] = test system: ileal microbiota; assay: 16S rRNA gene sequencing, microbiota composition in the ileum; format: in vivo, Ross 308 broiler chickens
[3] = 0.1 g berberine/kg feed vs normal diet, 21 days, LinDA-normalized abundance
[4] = 0.1 g berberine/kg feed, 21 days
[5] = 0.5 g berberine/kg feed vs normal diet, 21 days, LinDA-normalized abundance
[6] = 0.5 g berberine/kg feed, 21 days
[7] = 1 g berberine/kg feed vs normal diet, 21 days, LinDA-normalized abundance

`COc1ccc2cc3[n+](cc2c1OC)CCc1cc2c(cc1-3)OCO2` [Berberine, Berberine chloride] was tested, and the “Growth of the tested bacteria” value [1] was “not significantly affected”, the “L2 FC Cronobacter, 0.1 vs 0” value [2, 3] was 0.38 and the “L2 FC Curtobacterium, 0.1 vs 0” value [2, 3] was -0.49. The “L2 FC Faecalibacterium, 0.1 vs 0” value [2, 3] was 1.89, the “L2 FC Family_ Peptostreptococcaceae, 0.1 vs 0” value [2, 3] was 2.07 and the “L2 FC Glutamicibacter, 0.1 vs 0” value [2, 3] was 0.33. The “L2 FC Lachnoclostridium 5, 0.1 vs 0” value [2, 3] was 0.40, the “L2 FC Ralstonia, 0.1 vs 0” value [2, 3] was -0.96 and the “L2 FC Romboutsia, 0.1 vs 0” value [2, 3] was 2.23. For the same compound, the “L2 FC Serratia, 0.1 vs 0” value [2, 3] was 0.03, the “L2 FC Tyzzerella, 0.1 vs 0” value [2, 3] was 0.06 and the “L2 FC uncultured genus of Mollicutes RF39, 0.1 vs 0” value [2, 3] was 0.63. For the same compound, the “L2 FC uncultured genus of Peptostreptococcaceae, 0.1 vs 0” value [2, 3] was 1.99, the “Mean relative abundance (%) Cronobacter” value [2, 4] was 0.00% and the “Mean relative abundance (%) Curtobacterium” value [2, 4] was 0.01%. For the same compound, the “Mean relative abundance (%) Faecalibacterium” value [2, 4] was 0.02%, the “Mean relative abundance (%) Family_ Peptostreptococcaceae” value [2, 4] was 0.37% and the “Mean relative abundance (%) Glutamicibacter” value [2, 4] was 0.01%. The “Mean relative abundance (%) Lachnoclostridium 5” value [2, 4] was 0.00%, the “Mean relative abundance (%) Ralstonia” value [2, 4] was 0.04% and the “Mean relative abundance (%) Romboutsia” value [2, 4] was 0.24%. The “Mean relative abundance (%) Serratia” value [2, 4] was 0.00%, the “Mean relative abundance (%) Tyzzerella” value [2, 4] was 0.00% and the “Mean relative abundance (%) uncultured genus of Mollicutes RF39” value [2, 4] was 0.00%. For the same compound, the “Mean relative abundance (%) uncultured genus of Peptostreptococcaceae” value [2, 4] was 38.50%, the “Mean relative abundance of Lachnospiraceae” value [2, 4] was 2.54% and the “Mean relative abundance of Peptostreptococcaceae” value [2, 4] was 39.1%. The “Mean relative abundance of Ruminococcaceae” value [2, 4] was 1.35%, the “L2FC of LinDA-normalized abundance of Lachnospiraceae” value ([2]; 0.1 vs 0 g berberine/kg feed) was -0.49 and the “L2FC of LinDA-normalized abundance of Peptostreptococcaceae” value ([2]; 0.1 vs 0 g berberine/kg feed) was 1.55. The “L2FC of LinDA-normalized abundance of Ruminococcaceae” value ([2]; 0.1 vs 0 g berberine/kg feed) was 0.41, the “L2 FC Cronobacter, 0.5 vs 0” value [2, 5] was -0.95 and the “L2 FC Curtobacterium, 0.5 vs 0” value [2, 5] was -1.50. For the same compound, the “L2 FC Faecalibacterium, 0.5 vs 0” value [2, 5] was 1.01, the “L2 FC Family_ Peptostreptococcaceae, 0.5 vs 0” value [2, 5] was -0.52 and the “L2 FC Glutamicibacter, 0.5 vs 0” value [2, 5] was -0.49. For the same compound, the “L2 FC Lachnoclostridium 5, 0.5 vs 0” value [2, 5] was -0.09, the “L2 FC Ralstonia, 0.5 vs 0” value [2, 5] was -1.95 and the “L2 FC Romboutsia, 0.5 vs 0” value [2, 5] was -0.07. For the same compound, the “L2 FC Serratia, 0.5 vs 0” value [2, 5] was -0.80, the “L2 FC Tyzzerella, 0.5 vs 0” value [2, 5] was -0.72 and the “L2 FC uncultured genus of Mollicutes RF39, 0.5 vs 0” value [2, 5] was 0.65. The “L2 FC uncultured genus of Peptostreptococcaceae, 0.5 vs 0” value [2, 5] was -0.24, the “Mean relative abundance (%) Cronobacter” value [2, 6] was 0.00% and the “Mean relative abundance (%) Curtobacterium” value [2, 6] was 0.02%. The “Mean relative abundance (%) Faecalibacterium” value [2, 6] was 0.02%, the “Mean relative abundance (%) Family_ Peptostreptococcaceae” value [2, 6] was 0.15% and the “Mean relative abundance (%) Glutamicibacter” value [2, 6] was 0.01%. For the same compound, the “Mean relative abundance (%) Lachnoclostridium 5” value [2, 6] was 0.02%, the “Mean relative abundance (%) Ralstonia” value [2, 6] was 0.05% and the “Mean relative abundance (%) Romboutsia” value [2, 6] was 0.13%. For the same compound, the “Mean relative abundance (%) Serratia” value [2, 6] was 0.00%, the “Mean relative abundance (%) Tyzzerella” value [2, 6] was 0.00% and the “Mean relative abundance (%) uncultured genus of Mollicutes RF39” value [2, 6] was 0.02%. For the same compound, the “Mean relative abundance (%) uncultured genus of Peptostreptococcaceae” value [2, 6] was 24.63%, the “Mean relative abundance of Lachnospiraceae” value [2, 6] was 14.77% and the “Mean relative abundance of Peptostreptococcaceae” value [2, 6] was 24.91%. The “Mean relative abundance of Ruminococcaceae” value [2, 6] was 6.11%, the “L2FC of LinDA-normalized abundance of Lachnospiraceae” value ([2]; 0.5 vs 0 g berberine/kg feed) was -0.17 and the “L2FC of LinDA-normalized abundance of Peptostreptococcaceae” value ([2]; 0.5 vs 0 g berberine/kg feed) was -0.50. For the same compound, the “L2FC of LinDA-normalized abundance of Ruminococcaceae” value ([2]; 0.5 vs 0 g berberine/kg feed) was 0.24, the “L2 FC Cronobacter, 1 vs 0” value [2, 7] was -3.64 and the “L2 FC Curtobacterium, 1 vs 0” value [2, 7] was -2.66. The “L2 FC Faecalibacterium, 1 vs 0” value [2, 7] was -2.86, the “L2 FC Family_ Peptostreptococcaceae, 1 vs 0” value [2, 7] was -7.51 and the “L2 FC Glutamicibacter, 1 vs 0” value [2, 7] was -2.76. The “L2 FC Lachnoclostridium 5, 1 vs 0” value [2, 7] was -3.40, the “L2 FC Ralstonia, 1 vs 0” value [2, 7] was -5.90 and the “L2 FC Romboutsia, 1 vs 0” value [2, 7] was -6.95. For the same compound, the “L2 FC Serratia, 1 vs 0” value [2, 7] was -3.49, the “L2 FC Tyzzerella, 1 vs 0” value [2, 7] was -2.59 and the “L2 FC uncultured genus of Mollicutes RF39, 1 vs 0” value [2, 7] was -3.09. The “L2 FC uncultured genus of Peptostreptococcaceae, 1 vs 0” value [2, 7] was -9.51, the “Mean relative abundance (%) Cronobacter” value ([2]; 1 g berberine/kg feed, 21 days) was 0.00% and the “Mean relative abundance (%) Curtobacterium” value ([2]; 1 g berberine/kg feed, 21 days) was 0.03%. The “Mean relative abundance (%) Faecalibacterium” value ([2]; 1 g berberine/kg feed, 21 days) was 0.01%, the “Mean relative abundance (%) Family_ Peptostreptococcaceae” value ([2]; 1 g berberine/kg feed, 21 days) was 0.01% and the “Mean relative abundance (%) Glutamicibacter” value ([2]; 1 g berberine/kg feed, 21 days) was 0.01%. The “Mean relative abundance (%) Lachnoclostridium 5” value ([2]; 1 g berberine/kg feed, 21 days) was 0.00%, the “Mean relative abundance (%) Ralstonia” value ([2]; 1 g berberine/kg feed, 21 days) was 0.37% and the “Mean relative abundance (%) Romboutsia” value ([2]; 1 g berberine/kg feed, 21 days) was 0.01%. For the same compound, the “Mean relative abundance (%) Serratia” value ([2]; 1 g berberine/kg feed, 21 days) was 0.00%, the “Mean relative abundance (%) Tyzzerella” value ([2]; 1 g berberine/kg feed, 21 days) was 0.01% and the “Mean relative abundance (%) uncultured genus of Mollicutes RF39” value ([2]; 1 g berberine/kg feed, 21 days) was 0.00%. For the same compound, the “Mean relative abundance (%) uncultured genus of Peptostreptococcaceae” value ([2]; 1 g berberine/kg feed, 21 days) was 0.72%, the “Mean relative abundance of Lachnospiraceae” value ([2]; 1 g berberine/kg feed, 21 days) was 26.87% and the “Mean relative abundance of Peptostreptococcaceae” value ([2]; 1 g berberine/kg feed, 21 days) was 0.73%. For the same compound, the “Mean relative abundance of Ruminococcaceae” value ([2]; 1 g berberine/kg feed, 21 days) was 8.08%, the “L2FC of LinDA-normalized abundance of Lachnospiraceae” value ([2]; 1 vs 0 g berberine/kg feed) was 2.99 and the “L2FC of LinDA-normalized abundance of Peptostreptococcaceae” value ([2]; 1 vs 0 g berberine/kg feed) was -6.91. The “L2FC of LinDA-normalized abundance of Ruminococcaceae” value ([2]; 1 vs 0 g berberine/kg feed) was 3.41, the “Estimated microbial diversity (Shannon index)” value ([2]; highest concentration (1 g/kg feed), p = 0.045) was “significantly increased” and the “Abundance of phylum Tenericutes” value ([2]; lowest concentration (0.1 g/kg feed)) was “increase”.
